Source: publication PMC4583449, “Characterisation of (R)-2-(2-Fluorobiphenyl-4-yl)-N-(3-Methylpyridin-2-yl)Propanamide as a Dual Fatty Acid Amide Hydrolase: Cyclooxygenase Inhibitor” (PLoS ONE, 2015)
Values joined by “and” are separate entries in the source; they are usually repeats but may differ in a detail not shown here. Identical values can stand only once. Like-named read-outs stand apart in the source and are kept apart here.

Assays:
ovine COX-1 = biological target: T1, ovine COX-1 (Ovis aries, UniProt P05979); experiment: COX-1 inhibition, oxygraphic method (oxygen electrode); assay type: biochemical; settings: 10 μM arachidonic acid; no preincubation phase; approximate, from initial velocities
T1 construct: purchased Cayman Chemical Co. 60100
T1 sequence (P05979 25-600): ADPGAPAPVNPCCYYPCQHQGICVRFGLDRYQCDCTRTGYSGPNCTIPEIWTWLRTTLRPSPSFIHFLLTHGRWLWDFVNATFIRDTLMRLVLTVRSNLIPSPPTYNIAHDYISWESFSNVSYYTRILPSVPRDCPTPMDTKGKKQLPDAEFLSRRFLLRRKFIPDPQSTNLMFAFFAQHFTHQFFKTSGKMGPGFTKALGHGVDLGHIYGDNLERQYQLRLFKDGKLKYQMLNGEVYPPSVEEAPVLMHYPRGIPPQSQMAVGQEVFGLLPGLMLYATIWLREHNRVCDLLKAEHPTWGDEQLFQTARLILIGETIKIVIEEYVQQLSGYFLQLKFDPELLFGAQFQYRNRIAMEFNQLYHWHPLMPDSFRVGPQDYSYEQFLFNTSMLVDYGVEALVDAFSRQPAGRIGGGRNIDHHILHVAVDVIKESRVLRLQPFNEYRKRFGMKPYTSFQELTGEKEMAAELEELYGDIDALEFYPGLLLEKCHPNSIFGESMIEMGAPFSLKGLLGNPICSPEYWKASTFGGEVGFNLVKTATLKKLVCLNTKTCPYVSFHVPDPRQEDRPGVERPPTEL
Procedure: The assay was performed according to Meade et al. with minor modifications. An oxygen electrode chamber with integral stirring (Oxygraph System, Hansatech Instruments, King´s Lynn, U.K.) was calibrated daily to ambient temperature and air pressure. The assay buffer contained 0.1 M Tris-HCl buffer pH 7.4, 1 μM haematin, 2 mM phenol, 5 mM EDTA, 10 μM substrate (arachidonic acid or 2-AG) (final assay volume was 2 ml). After addition of (R)- or (S)-Flu-AM1 dissolved in ethanol (final assay concentration 1%), a baseline was established for 5 min before initiation of reaction by addition of 200 units ovine COX-1 or human recombinant COX-2. The change in oxygen consumption as a measurement of enzyme activity was monitored for approximately 5 min.

mouse brain FAAH = biological target: T2, mouse brain FAAH (Mus musculus, UniProt O08914); experiment: FAAH assay, [3H]AEA hydrolysis in mouse brain homogenates; assay type: biochemical
T2 construct: Brains from male B6CBAF1/J mice, stored at -80°C, were thawed, weighed and homogenized in cold buffer; from tissue; host or cells: brain of male B6CBAF1/J mice (washed membrane pellet homogenate)
T2 sequence (O08914 1-579): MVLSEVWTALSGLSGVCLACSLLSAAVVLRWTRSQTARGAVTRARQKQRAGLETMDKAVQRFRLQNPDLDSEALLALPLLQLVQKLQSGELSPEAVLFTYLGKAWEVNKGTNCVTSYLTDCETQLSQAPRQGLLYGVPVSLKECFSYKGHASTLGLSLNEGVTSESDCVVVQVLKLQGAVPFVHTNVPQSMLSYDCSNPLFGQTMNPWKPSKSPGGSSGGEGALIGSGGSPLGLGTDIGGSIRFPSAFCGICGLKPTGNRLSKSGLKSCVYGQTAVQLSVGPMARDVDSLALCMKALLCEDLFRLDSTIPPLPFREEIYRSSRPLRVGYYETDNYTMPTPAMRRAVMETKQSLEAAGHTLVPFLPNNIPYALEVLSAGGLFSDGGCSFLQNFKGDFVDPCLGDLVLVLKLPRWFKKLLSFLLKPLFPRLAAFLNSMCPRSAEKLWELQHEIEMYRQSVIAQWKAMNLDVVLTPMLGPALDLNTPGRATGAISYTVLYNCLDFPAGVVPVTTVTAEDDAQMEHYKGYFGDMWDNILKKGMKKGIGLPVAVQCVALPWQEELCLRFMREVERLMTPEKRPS
Procedure: Brains from male B6CBAF1/J mice, stored at -80°C, were thawed, weighed and homogenized in cold buffer (20 mM HEPES, 1 mM MgCl2 pH 7.0). Homogenates were centrifuged (35,000 g at 4°C for 20 min) before the pellet was resuspended in cold homogenization buffer. Centrifugation and resuspension was repeated twice. The suspension was incubated at 37°C for 15 min to degrade any endogenous substrate able to interfere with the FAAH assay. After centrifugation (35,000 g at 4°C for 20 min), the pellet was resuspended in cold buffer (50 mM Tris-HCl, 1mM EDTA, 3 mM MgCl2, pH 7.4). The protein concentration was determined according to the Bradford assay after which the samples were frozen in aliquots at -80°C. Ethical permission for the animal experiments was obtained from the local animal research ethical committee (Umeå Ethical Committee for Animal Research, Umeå, Sweden). FAAH was assayed using the method of Boldrup et al., whereby homogenates (0.3 μg protein / assay) in assay buffer (10 mM Tris-HCl, 1mM EDTA, pH 7.4), test compounds and substrate ([^3H]AEA in 10 mM Tris-HCl, 1mM EDTA, pH 7.4 containing 10 mg/ml fatty acid-free bovine serum, assay concentration 0.5 μM unless otherwise stated) were incubated for 10 min at 37°C. Thereafter, 400 μL activated charcoal (80 μL activated charcoal + 320 μL 0.5 M HCl) was added and the samples were placed on ice and centrifuged at 2500 rpm for 10 min. Aliquots (200 μL) of the supernatant was analyzed for tritium content by liquid scintillation spectroscopy with quench correction.

Cc1cccnc1NC(=O)[C@H](C)c1ccc(-c2ccccc2)c(F)c1 [(R)-Flu-AM1, (R)-2-(2-Fluorobiphenyl-4-yl)-N-(3-Methylpyridin-2-yl)Propanamide]
IC50 (ovine COX-1): 6 µM and ~6 µM | IC50 (mouse brain FAAH; 0.5 μM [3H]AEA, read-out: IC50 inhibition of [3H]AEA hydrolysis in mouse brain homogenates): 8.8 µM | Ki (mouse brain FAAH; Dixon replot of mean kinetic data, 1–8 μM [3H]AEA, read-out: Ki FAAH (Dixon plot)): 19 µM | Mode of FAAH inhibition (mouse brain FAAH; kinetic experiments, 1–8 μM [3H]AEA): competitive inhibitor | Ki (mouse brain FAAH; kinetic experiments, 1–8 μM [3H]AEA, read-out: Ki FAAH (competitive model fit)): 20 ± 8 µM
